Test results: publication PMC9950205, “Efficacy, safety, and pharmacokinetics of teduglutide in adult Japanese patients with short bowel syndrome and intestinal failure: two phase III studies with an extension” (Surgery Today, 2022)

Tested on: adult Japanese patients with SBS-IF
Experiment: Safety: treatment-emergent adverse events (TEAEs, TESAEs)
Format: in vivo
Description: Safety analyses included the monitoring of adverse events (AEs), body weight, BMI, vital signs, 12-lead electrocardiogram (ECG), serum biochemistry, hematology, and presence of antibodies to teduglutide. AEs were coded using the Medical Dictionary for Regulatory Activities versions 17.1 (TED-C14-004) and 21.0 (SHP633-306 and SHP633-307). Specifically, AEs were treatment-emergent AEs (TEAEs), defined as any unfavorable and unintended sign (including any abnormal laboratory finding), symptom, or disease that occurred during treatment with teduglutide, whether or not the event was considered to be related to the study drug by the clinical study investigator. AEs were also categorized as mild, moderate, or severe. […] AEs were considered related to treatment with teduglutide, or its administration, based on the investigator's medical judgment.

[1] = ≤ 24 weeks (SHP633-306 and TED-C14-004), 0.05 mg/kg/day

CC[C@H](C)[C@H](NC(=O)[C@H](Cc1ccccc1)NC(=O)[C@H](CC(=O)O)NC(=O)[C@H](CCCNC(=N)N)NC(=O)[C@H](C)NC(=O)[C@H](C)NC(=O)[C@H](CC(C)C)NC(=O)[C@H](CC(N)=O)NC(=O)[C@H](CC(=O)O)NC(=O)[C@H](CC(C)C)NC(=O)[C@@H](NC(=O)[C@@H](NC(=O)[C@H](CC(N)=O)NC(=O)[C@H](CCSC)NC(=O)[C@H](CCC(=O)O)NC(=O)[C@H](CC(=O)O)NC(=O)[C@H](CO)NC(=O)[C@H](Cc1ccccc1)NC(=O)[C@H](CO)NC(=O)CNC(=O)[C@H](CC(=O)O)NC(=O)CNC(=O)[C@@H](N)Cc1c[nH]cn1)[C@@H](C)O)[C@@H](C)CC)C(=O)N[C@@H](CC(N)=O)C(=O)N[C@@H](Cc1c[nH]c2ccccc12)C(=O)N[C@@H](CC(C)C)C(=O)N[C@H](C(=O)N[C@@H](CCC(N)=O)C(=O)N[C@H](C(=O)N[C@@H](CCCCN)C(=O)N[C@H](C(=O)N[C@H](C(=O)N[C@@H](CC(=O)O)C(=O)O)[C@@H](C)O)[C@@H](C)CC)[C@@H](C)O)[C@@H](C)CC [teduglutide]
Immune system disorders: Events (Total, 0.05 mg/kg/day): 2 n | Immune system disorders: Patients (Total, 0.05 mg/kg/day): 2 (11.1) n (%) | Infections and infestations: Events (Total, 0.05 mg/kg/day): 81 n | Infections and infestations: Patients (Total, 0.05 mg/kg/day): 12 (66.7) n (%) | Influenza: Events (Total, 0.05 mg/kg/day): 21 n | Injection site reaction: Events (Total, 0.05 mg/kg/day): 4 n | Injection site reaction: Patients (Total, 0.05 mg/kg/day): 4 (22.2) n (%) | Injury, poisoning, and procedural complications: Events (Total, 0.05 mg/kg/day): 6 n | Injury, poisoning, and procedural complications: Patients (Total, 0.05 mg/kg/day): 5 (27.8) n (%) | Insomnia: Events (Total, 0.05 mg/kg/day): 2 n | Insomnia: Patients (Total, 0.05 mg/kg/day): 2 (11.1) n (%) | Investigations: Events (Total, 0.05 mg/kg/day): 14 n | Investigations: Patients (Total, 0.05 mg/kg/day): 7 (38.9) n (%) | Metabolism and nutrition disorders: Events (Total, 0.05 mg/kg/day): 13 n | Metabolism and nutrition disorders: Patients (Total, 0.05 mg/kg/day): 7 (38.9) n (%) | Musculoskeletal and connective tissue disorders: Events (Total, 0.05 mg/kg/day): 12 n | Musculoskeletal and connective tissue disorders: Patients (Total, 0.05 mg/kg/day): 8 (44.4) n (%) | Nasopharyngitis: Events (Total, 0.05 mg/kg/day): 21 n | Nasopharyngitis: Patients (Total, 0.05 mg/kg/day): 7 (38.9) n (%) | Nausea: Events (Total, 0.05 mg/kg/day): 8 n | Nausea: Patients (Total, 0.05 mg/kg/day): 4 (22.2) n (%) | Nervous system disorders: Events (Total, 0.05 mg/kg/day): 26 n | Nervous system disorders: Patients (Total, 0.05 mg/kg/day): 8 (44.4) n (%) | Oral herpes: Events (Total, 0.05 mg/kg/day): 2 n | Oral herpes: Patients (Total, 0.05 mg/kg/day): 2 (11.1) n (%) | Oropharyngeal pain: Events (Total, 0.05 mg/kg/day): 4 n | Oropharyngeal pain: Patients (Total, 0.05 mg/kg/day): 4 (22.2) n (%) | Pruritus: Events (Total, 0.05 mg/kg/day): 2 n | Pruritus: Patients (Total, 0.05 mg/kg/day): 2 (11.1) n (%) | Psychiatric disorders: Events (Total, 0.05 mg/kg/day): 4 n | Psychiatric disorders: Patients (Total, 0.05 mg/kg/day): 3 (16.7) n (%) | Pyrexia: Events (Total, 0.05 mg/kg/day): 11 n | Pyrexia: Patients (Total, 0.05 mg/kg/day): 8 (44.4) n (%) | Renal and urinary disorders: Events (Total, 0.05 mg/kg/day): 6 n | Renal and urinary disorders: Patients (Total, 0.05 mg/kg/day): 5 (27.8) n (%) | Respiratory, thoracic, and mediastinal disorders: Events (Total, 0.05 mg/kg/day): 13 n | Respiratory, thoracic, and mediastinal disorders: Patients (Total, 0.05 mg/kg/day): 7 (38.9) n (%) | Skin and subcutaneous tissue disorders: Events (Total, 0.05 mg/kg/day): 18 n | Skin and subcutaneous tissue disorders: Patients (Total, 0.05 mg/kg/day): 9 (50.0) n (%) | Somnolence: Events (Total, 0.05 mg/kg/day): 3 n | Somnolence: Patients (Total, 0.05 mg/kg/day): 3 (16.7) n (%) | Stomatitis: Events (Total, 0.05 mg/kg/day): 4 n | Stomatitis: Patients (Total, 0.05 mg/kg/day): 4 (22.2) n (%) | Upper respiratory tract inflammation: Events (Total, 0.05 mg/kg/day): 3 n | Upper respiratory tract inflammation: Patients (Total, 0.05 mg/kg/day): 2 (11.1) n (%) | Vascular disorders: Events (Total, 0.05 mg/kg/day): 6 n | Vascular disorders: Patients (Total, 0.05 mg/kg/day): 4 (22.2) n (%) | Vascular pain: Events (Total, 0.05 mg/kg/day): 3 n | Vascular pain: Patients (Total, 0.05 mg/kg/day): 2 (11.1) n (%) | Vomiting: Events (Total, 0.05 mg/kg/day): 3 n | Vomiting: Patients (Total, 0.05 mg/kg/day): 3 (16.7) n (%) | Severity of the majority of all TEAEs (all studies): mild or moderate | Changes in clinical laboratory measures, vital signs, body weight, BMI, or ECG findings (during any of the studies): no clinically meaningful changes | AEs related to growth of pre-existing polyps of the colon or gastrointestinal cancers (during the studies): no AEs | Abdominal distension: Events [1]: 4 n | Abdominal distension: Patients [1]: 4 (22.2) n (%) | Abdominal pain: Events [1]: 5 n | Abdominal pain: Patients [1]: 5 (27.8) n (%) | Anal abscess: Events [1]: 0 n | Anal abscess: Patients [1]: 0 n (%) | Anemia: Events [1]: 2 n | Anemia: Patients [1]: 2 (11.1) n (%) | Any TEAE: Events [1]: 121 n | Any TEAE: Patients [1]: 17 (94.4) n (%) | Arthralgia: Events [1]: 0 n | Arthralgia: Patients [1]: 0 n (%) | Back pain: Events [1]: 1 n | Back pain: Patients [1]: 1 (5.6) n (%) | Blood and lymphatic system disorders: Events [1]: 4 n | Blood and lymphatic system disorders: Patients [1]: 3 (16.7) n (%) | Catheter site infection: Events [1]: 1 n | Catheter site infection: Patients [1]: 1 (5.6) n (%) | Catheter site pain: Events [1]: 1 n | Catheter site pain: Patients [1]: 1 (5.6) n (%) | Dehydration: Events [1]: 2 n | Dehydration: Patients [1]: 2 (11.1) n (%) | Dermatitis contact: Events [1]: 0 n | Dermatitis contact: Patients [1]: 0 n (%) | Device occlusion (central venous catheter for PS): Events [1]: 3 n | Device occlusion (central venous catheter for PS): Patients [1]: 2 (11.1) n (%) | Device-related infection (central venous catheter for PS): Events [1]: 9 n | Device-related infection (central venous catheter for PS): Patients [1]: 6 (33.3) n (%) | Diarrhea: Events [1]: 1 n | Diarrhea: Patients [1]: 1 (5.6) n (%) | Dry skin: Events [1]: 1 n | Dry skin: Patients [1]: 1 (5.6) n (%) | Enteritis: Events [1]: 1 n | Enteritis: Patients [1]: 1 (5.6) n (%) | Enterocolitis: Events [1]: 2 n | Enterocolitis: Patients [1]: 1 (5.6) n (%) | Eye disorder: Events [1]: 2 n | Eye disorder: Patients [1]: 2 (11.1) n (%) | Gastrointestinal disorders: Events [1]: 27 n | Gastrointestinal disorders: Patients [1]: 12 (66.7) n (%) | General disorders and administration site conditions: Events [1]: 21 n | General disorders and administration site conditions: Patients [1]: 9 (50.0) n (%) | Headache: Events [1]: 3 n | Headache: Patients [1]: 3 (16.7) n (%) | Hematuria: Events [1]: 1 n | Hematuria: Patients [1]: 1 (5.6) n (%) | Hemorrhage subcutaneous: Events [1]: 1 n | Hemorrhage subcutaneous: Patients [1]: 1 (5.6) n (%) | Hepatobiliary disorders: Events [1]: 3 n | Hepatobiliary disorders: Patients [1]: 2 (11.1) n (%) | Hypersensitivity: Events [1]: 0 n | Hypersensitivity: Patients [1]: 0 n (%) | Hypozincemia: Events [1]: 1 n | Hypozincemia: Patients [1]: 1 (5.6) n (%) | Immune system disorders: Events [1]: 0 n | Immune system disorders: Patients [1]: 0 n (%) | Infections and infestations: Events [1]: 19 n | Infections and infestations: Patients [1]: 8 (44.4) n (%) | Influenza: Events [1]: 0 n | Influenza: Patients [1]: 0 n (%) | Injection site reaction: Events [1]: 4 n | Injection site reaction: Patients [1]: 4 (22.2) n (%) | Injury, poisoning, and procedural complications: Events [1]: 5 n | Injury, poisoning, and procedural complications: Patients [1]: 4 (22.2) n (%) | Insomnia: Events [1]: 0 n | Insomnia: Patients [1]: 0 n (%) | Investigations: Events [1]: 9 n | Investigations: Patients [1]: 6 (33.3) n (%) | Metabolism and nutrition disorders: Events [1]: 6 n | Metabolism and nutrition disorders: Patients [1]: 4 (22.2) n (%) | Musculoskeletal and connective tissue disorders: Events [1]: 2 n | Musculoskeletal and connective tissue disorders: Patients [1]: 2 (11.1) n (%) | Nasopharyngitis: Events [1]: 3 n | Nasopharyngitis: Patients [1]: 3 (16.7) n (%) | Nausea: Events [1]: 1 n | Nausea: Patients [1]: 1 (5.6) n (%) | Nervous system disorders: Events [1]: 7 n | Nervous system disorders: Patients [1]: 4 (22.2) n (%) | Oral herpes: Events [1]: 1 n | Oral herpes: Patients [1]: 1 (5.6) n (%) | Oropharyngeal pain: Events [1]: 1 n | Oropharyngeal pain: Patients [1]: 1 (5.6) n (%) | Pruritus: Events [1]: 1 n | Pruritus: Patients [1]: 1 (5.6) n (%) | Psychiatric disorders: Events [1]: 0 n | Psychiatric disorders: Patients [1]: 0 n (%) | Pyrexia: Events [1]: 6 n | Pyrexia: Patients [1]: 6 (33.3) n (%) | Renal and urinary disorders: Events [1]: 2 n | Renal and urinary disorders: Patients [1]: 2 (11.1) n (%) | Respiratory, thoracic, and mediastinal disorders: Events [1]: 5 n | Respiratory, thoracic, and mediastinal disorders: Patients [1]: 5 (27.8) n (%) | Skin and subcutaneous tissue disorders: Events [1]: 5 n | Skin and subcutaneous tissue disorders: Patients [1]: 4 (22.2) n (%) | Somnolence: Events [1]: 0 n | Somnolence: Patients [1]: 0 n (%) | Stomatitis: Events [1]: 1 n | Stomatitis: Patients [1]: 1 (5.6) n (%) | Upper respiratory tract inflammation: Events [1]: 2 n | Upper respiratory tract inflammation: Patients [1]: 2 (11.1) n (%) | Vascular disorders: Events [1]: 2 n | Vascular disorders: Patients [1]: 2 (11.1) n (%) | Vascular pain: Events [1]: 0 n | Vascular pain: Patients [1]: 0 n (%) | Vomiting: Events [1]: 2 n | Vomiting: Patients [1]: 2 (11.1) n (%)
